These results are taken from patent US8133998B2, “Bicyclic pyrimidine derivatives as calcium channel blockers” (Zalicus Pharmaceuticals, Ltd., priority 2007, dated 2012).

What all share (assay): T-type calcium channel block, whole cell patch clamp in HEK cells
Common to all, as to format: cell-based
For orientation: In patch-clamp work, channel activity is measured electrically.

The target of test [1] is T1, human α1G T-type channels (Homo sapiens, UniProt O43497).
T1 construct: expressed in transfected cells; host or cells: HEK 293
As to conditions: HEK cells stably expressing human α1G; measured at 1 μM drug; mainly non-inactivated protocol. The protocol:
(§1) T-type calcium channel blocking activity was assayed in human embryonic kidney cells, HEK 293, stably transfected with the T-type calcium channel subunits. Briefly, cells were cultured in Dulbecco's modified eagle medium (DMEM) supplemented with 10% fetal bovine serum, 200 U/ml penicillin and 0.2 mg/ml streptomycin at 37° C. with 5% CO2. At 85% confluency cells were split with 0.25% trypsin/1 mM EDTA and plated at 10% confluency on glass coverslips. At 12 hours the medium was replaced and the cells stably transfected using a standard calcium phosphate protocol and the appropriate calcium channel cDNA's. Fresh DMEM was supplied and the cells transferred to 28° C./5% CO2. Cells were incubated for 1 to 2 days prior to whole cell recording.
(§2) Standard patch-clamp techniques were employed to identify blockers of T-type currents. Briefly, previously described HEK cell lines stably expressing human α1G, α1H and α1I T-type channels were used for all the recordings (passage #: 4-20, 37° C., 5% CO2). Whole cell patch clamp experiments were performed using an Axopatch 200B amplifier (Axon Instruments, Burlingame, Calif.) linked to a personal computer equipped with pCLAMP software. Data were analyzed using Clampfit (Axon Instruments) and SigmaPlot 4.0 (Jandel Scientific). To obtain T-type currents, plastic dishes containing semi-confluent cells were positioned on the stage of a ZEISS AXIOVERT S100 microscope after replacing the culture medium with external solution (see below). Whole-cell patches were obtained using pipettes (borosilicate glass with filament, O.D.: 1.5 mm, I.D.: 0.86 mm, 10 cm length), fabricated on a SUTTER P-97 puller with resistance values of ˜5 MΩ (see below for internal solution).
(§3) In the non-inactivating protocol, the holding potential is set at −110 mV and with a pre-pulse at −100 mV for 1 second prior to the test pulse at −40 mV for 50 ms. In the inactivation protocol, the pre-pulse is at approximately −85 mV for 1 second, which inactivates about 15% of the T-type channels.
(§4) Test compounds were dissolved in external solution, 0.1-0.01% DMSO. After ˜10 min rest, they were applied by gravity close to the cell using a WPI microfil tubing. The “non-inactivated” pre-pulse was used to examine the resting block of a compound. The “inactivated” protocol was employed to study voltage-dependent block. However, the initial data shown below were mainly obtained using the non-inactivated protocol only. Kd values are shown for various compounds of the invention in Table 4 measured at 1 μM for the drug of interest except for compound 18 which was measured at 200 nM.

The target in test [2] is T2, human α1I T-type channels (Homo sapiens, UniProt Q9P0X4).
T2 construct: expressed in transfected cells; host or cells: HEK 293
T2 sequence (Q9P0X4 whole entry): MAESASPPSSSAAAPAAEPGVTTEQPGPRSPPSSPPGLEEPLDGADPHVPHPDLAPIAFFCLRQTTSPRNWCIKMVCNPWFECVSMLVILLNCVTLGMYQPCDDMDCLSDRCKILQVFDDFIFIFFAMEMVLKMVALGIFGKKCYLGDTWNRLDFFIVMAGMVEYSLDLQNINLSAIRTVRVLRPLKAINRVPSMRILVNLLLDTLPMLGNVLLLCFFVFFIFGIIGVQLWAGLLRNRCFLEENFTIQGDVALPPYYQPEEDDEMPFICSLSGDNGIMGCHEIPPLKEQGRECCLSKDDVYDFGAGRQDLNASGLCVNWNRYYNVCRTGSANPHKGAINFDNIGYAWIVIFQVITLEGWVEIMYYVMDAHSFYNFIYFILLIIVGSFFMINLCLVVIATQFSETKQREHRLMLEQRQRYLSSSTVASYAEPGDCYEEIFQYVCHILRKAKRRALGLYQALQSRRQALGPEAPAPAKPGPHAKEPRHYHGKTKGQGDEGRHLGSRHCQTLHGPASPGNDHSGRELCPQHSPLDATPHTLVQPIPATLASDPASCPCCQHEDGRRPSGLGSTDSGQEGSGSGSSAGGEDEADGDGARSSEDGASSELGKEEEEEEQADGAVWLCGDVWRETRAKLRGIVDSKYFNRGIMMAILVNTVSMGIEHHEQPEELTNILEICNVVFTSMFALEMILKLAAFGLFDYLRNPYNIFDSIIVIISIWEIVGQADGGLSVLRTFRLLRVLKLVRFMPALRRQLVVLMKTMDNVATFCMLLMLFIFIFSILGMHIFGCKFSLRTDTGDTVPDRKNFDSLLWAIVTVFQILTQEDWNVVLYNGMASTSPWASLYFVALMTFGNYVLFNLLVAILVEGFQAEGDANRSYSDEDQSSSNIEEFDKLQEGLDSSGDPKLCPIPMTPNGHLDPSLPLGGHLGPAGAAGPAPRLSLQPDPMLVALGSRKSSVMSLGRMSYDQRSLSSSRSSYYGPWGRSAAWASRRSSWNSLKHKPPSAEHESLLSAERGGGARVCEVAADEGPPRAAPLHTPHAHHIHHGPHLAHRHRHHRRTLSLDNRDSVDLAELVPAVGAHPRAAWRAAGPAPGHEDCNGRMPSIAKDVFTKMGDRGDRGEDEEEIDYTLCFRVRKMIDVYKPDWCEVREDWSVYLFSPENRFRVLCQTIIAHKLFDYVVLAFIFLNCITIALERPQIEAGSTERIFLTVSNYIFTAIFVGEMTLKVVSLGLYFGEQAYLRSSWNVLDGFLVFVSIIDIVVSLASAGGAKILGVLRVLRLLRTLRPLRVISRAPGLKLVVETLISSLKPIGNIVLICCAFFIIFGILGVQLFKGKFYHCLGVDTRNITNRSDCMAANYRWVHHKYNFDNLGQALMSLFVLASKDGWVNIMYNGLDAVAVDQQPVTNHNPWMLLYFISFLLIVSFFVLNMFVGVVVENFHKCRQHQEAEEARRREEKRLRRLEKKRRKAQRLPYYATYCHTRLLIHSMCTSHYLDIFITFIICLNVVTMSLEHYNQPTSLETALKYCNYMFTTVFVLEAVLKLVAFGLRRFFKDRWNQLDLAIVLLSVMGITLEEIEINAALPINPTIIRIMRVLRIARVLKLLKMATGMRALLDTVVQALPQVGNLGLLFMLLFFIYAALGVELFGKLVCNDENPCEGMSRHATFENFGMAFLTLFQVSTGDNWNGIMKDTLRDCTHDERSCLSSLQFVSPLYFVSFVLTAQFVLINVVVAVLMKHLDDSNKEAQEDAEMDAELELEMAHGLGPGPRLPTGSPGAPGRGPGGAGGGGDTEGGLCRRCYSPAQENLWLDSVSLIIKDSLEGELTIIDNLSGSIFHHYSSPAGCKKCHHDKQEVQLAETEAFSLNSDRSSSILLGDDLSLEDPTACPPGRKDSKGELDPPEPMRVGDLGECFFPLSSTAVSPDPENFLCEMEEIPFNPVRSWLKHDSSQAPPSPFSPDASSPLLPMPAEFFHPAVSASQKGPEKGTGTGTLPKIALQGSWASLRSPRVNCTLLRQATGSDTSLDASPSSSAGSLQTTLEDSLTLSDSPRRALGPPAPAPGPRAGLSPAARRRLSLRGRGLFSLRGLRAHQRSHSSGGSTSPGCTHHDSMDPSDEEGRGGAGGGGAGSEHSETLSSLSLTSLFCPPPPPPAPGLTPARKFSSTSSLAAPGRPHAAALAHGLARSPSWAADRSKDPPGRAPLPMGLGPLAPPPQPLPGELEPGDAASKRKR
The settings on record: HEK cells stably expressing human α1I; measured at 1 μM drug; mainly non-inactivated protocol. The protocol:
as §1, §2, §3, §4

The target in test [3] is T3, human α1H T-type channels (Homo sapiens, UniProt O95180).
T3 construct: expressed in transfected cells; host or cells: HEK 293
T3 sequence (O95180 whole entry): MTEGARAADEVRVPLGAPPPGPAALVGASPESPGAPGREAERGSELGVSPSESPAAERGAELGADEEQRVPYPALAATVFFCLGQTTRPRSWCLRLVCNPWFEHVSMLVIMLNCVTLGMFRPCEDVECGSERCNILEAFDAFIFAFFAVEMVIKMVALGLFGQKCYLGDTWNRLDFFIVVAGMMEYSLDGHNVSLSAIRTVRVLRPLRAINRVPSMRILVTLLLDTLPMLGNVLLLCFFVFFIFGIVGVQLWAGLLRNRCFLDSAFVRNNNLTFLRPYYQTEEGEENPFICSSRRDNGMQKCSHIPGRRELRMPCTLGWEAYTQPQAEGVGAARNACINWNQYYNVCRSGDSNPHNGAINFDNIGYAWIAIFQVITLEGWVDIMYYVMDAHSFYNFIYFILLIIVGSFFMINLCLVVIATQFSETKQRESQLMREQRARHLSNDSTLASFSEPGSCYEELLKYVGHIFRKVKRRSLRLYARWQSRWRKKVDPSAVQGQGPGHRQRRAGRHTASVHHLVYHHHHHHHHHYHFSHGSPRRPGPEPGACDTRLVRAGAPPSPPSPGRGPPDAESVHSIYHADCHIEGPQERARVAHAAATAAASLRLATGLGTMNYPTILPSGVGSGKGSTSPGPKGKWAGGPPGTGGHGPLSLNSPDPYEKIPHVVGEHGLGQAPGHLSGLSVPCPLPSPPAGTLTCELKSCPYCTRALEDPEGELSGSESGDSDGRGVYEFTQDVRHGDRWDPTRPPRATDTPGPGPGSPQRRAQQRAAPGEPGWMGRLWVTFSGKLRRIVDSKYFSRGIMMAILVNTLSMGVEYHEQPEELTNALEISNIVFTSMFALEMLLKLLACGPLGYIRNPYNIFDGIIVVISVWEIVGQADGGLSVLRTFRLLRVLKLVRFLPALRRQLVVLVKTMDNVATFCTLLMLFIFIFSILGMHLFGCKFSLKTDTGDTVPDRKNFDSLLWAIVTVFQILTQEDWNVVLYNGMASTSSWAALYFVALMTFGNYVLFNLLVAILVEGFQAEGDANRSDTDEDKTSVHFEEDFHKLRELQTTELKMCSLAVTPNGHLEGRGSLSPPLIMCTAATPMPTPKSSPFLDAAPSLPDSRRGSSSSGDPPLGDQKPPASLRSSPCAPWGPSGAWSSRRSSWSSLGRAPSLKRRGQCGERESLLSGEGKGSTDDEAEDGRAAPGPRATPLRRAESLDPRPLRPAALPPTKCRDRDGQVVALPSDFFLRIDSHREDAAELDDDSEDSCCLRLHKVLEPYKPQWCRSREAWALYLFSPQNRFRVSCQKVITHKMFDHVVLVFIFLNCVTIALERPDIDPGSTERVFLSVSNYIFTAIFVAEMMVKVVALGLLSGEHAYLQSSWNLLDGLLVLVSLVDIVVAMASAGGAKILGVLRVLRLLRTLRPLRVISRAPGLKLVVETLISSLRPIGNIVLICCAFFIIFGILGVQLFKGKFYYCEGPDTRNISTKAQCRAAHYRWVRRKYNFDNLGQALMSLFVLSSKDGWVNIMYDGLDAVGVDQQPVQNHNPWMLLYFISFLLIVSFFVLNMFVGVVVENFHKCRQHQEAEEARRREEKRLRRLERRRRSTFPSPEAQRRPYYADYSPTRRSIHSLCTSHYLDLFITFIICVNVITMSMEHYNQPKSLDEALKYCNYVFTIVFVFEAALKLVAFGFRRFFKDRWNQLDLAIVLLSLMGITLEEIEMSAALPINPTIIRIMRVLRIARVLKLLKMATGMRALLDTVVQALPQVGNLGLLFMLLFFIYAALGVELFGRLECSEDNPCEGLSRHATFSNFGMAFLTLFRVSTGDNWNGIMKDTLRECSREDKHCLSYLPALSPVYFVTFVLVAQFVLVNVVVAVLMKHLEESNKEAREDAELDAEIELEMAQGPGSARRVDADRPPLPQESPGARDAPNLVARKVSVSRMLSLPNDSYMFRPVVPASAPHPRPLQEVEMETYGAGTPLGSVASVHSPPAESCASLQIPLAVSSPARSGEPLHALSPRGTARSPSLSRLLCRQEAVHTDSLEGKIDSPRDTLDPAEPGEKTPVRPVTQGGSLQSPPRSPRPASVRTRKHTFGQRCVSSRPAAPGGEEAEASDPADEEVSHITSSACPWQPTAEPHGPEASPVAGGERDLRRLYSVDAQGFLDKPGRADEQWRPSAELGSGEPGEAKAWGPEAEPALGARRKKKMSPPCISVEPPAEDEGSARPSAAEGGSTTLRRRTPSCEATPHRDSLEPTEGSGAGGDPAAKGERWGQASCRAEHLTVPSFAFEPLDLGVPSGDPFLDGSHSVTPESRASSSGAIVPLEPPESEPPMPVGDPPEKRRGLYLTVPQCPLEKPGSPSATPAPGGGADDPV
As to conditions: HEK cells stably expressing human α1H; measured at 1 μM drug; mainly non-inactivated protocol. The protocol:
as §1, §2, §3, §4

The Kd is the constant that tells how readily two partners part at equilibrium. With `Cc1c(C(=O)N2CCN(c3ccccc3)CC2)sc2ncn(CC(=O)NC3CCCCC3)c(=O)c12` [Compound 19, N-cyclohexyl-2-(5-methyl-4-oxo-6-(4-phenylpiperazine-1-carbonyl)thieno[2,3-d]pyrimidin-3(4H)-yl)acetamide], the Kd in test [1] turned out to be 3600 nM; in test [2], 2380 nM; in test [3] it was 360 nM.

For `CCN(CC)C(=O)Cn1cnc2sc(C(=O)N3CCN(c4ccc(C(F)(F)F)cc4)CC3)c(C)c2c1=O` [Compound 10, N,N-diethyl-2-(5-methyl-4-oxo-6-(4-(4-(trifluoromethyl)phenyl)piperazine-1-carbonyl)thieno[2,3-d]pyrimidin-3(4H)-yl)acetamide], the values for the dissociation constant (Kd) in test [1], in test [2] and in test [3] were 1220 nM, above 31300 nM and 300 nM, respectively.

With `Cc1c(C(=O)N2CCN(c3ccccc3F)CC2)sc2ncn(CC(=O)NC3CCCCC3)c(=O)c12` [Compound 23, N-cyclohexyl-2-(6-(4-(2-fluorophenyl)piperazine-1-carbonyl)-5-methyl-4-oxothieno[2,3-d]pyrimidin-3(4H)-yl)acetamide], the figures for the dissociation constant Kd in test [1], in test [2] and in test [3] were 1260 nM, 3270 nM and 280 nM, respectively.

On to `CCN(CC)C(=O)Cn1cnc2sc(C(=O)N3CCN(c4ccc(Cl)c(C(F)(F)F)c4)CC3)c(C)c2c1=O` [Compound 8, 2-(6-(4-(4-chloro-3-(trifluoromethyl)phenyl)piperazine-1-carbonyl)-5-methyl-4-oxothieno[2,3-d]pyrimidin-3(4H)-yl)-N,N-diethylacetamide], for which the dissociation constant (Kd) in test [1] came out at 450 nM; in test [3] it was 540 nM.

For `CCN(CC)C(=O)Cn1cnc2sc(C(=O)N3CCN(c4ccc(Cl)cc4)CC3)c(C)c2c1=O` [Compound 5, 2-(6-(4-(4-chlorophenyl)piperazine-1-carbonyl)-5-methyl-4-oxothieno[2,3-d]pyrimidin-3(4H)-yl)-N,N-diethylacetamide], the dissociation constant (Kd) stood at 1230 nM in test [1] and 620 nM in test [3].

Regarding `Cc1c(C(=O)N2CCN(c3cccc(Cl)c3)CC2)sc2ncn(CC(=O)N3CCC(F)(F)C3)c(=O)c12` [Compound 78, 6-(4-(3-chlorophenyl)-piperazine-1-carbonyl)-3-(2-(3,3-difluoropyrrolidin-1-yl)-2-oxoethyl)-5-methylthieno[2,3-d]pyrimidin-4(3H)-one], the Kd in test [1] was 620 nM; in test [3], 400 nM.

In the case of `Cc1c(C(=O)N2CCN(c3cccc(Cl)c3)CC2)sc2ncn(CC(=O)NC3CCCCC3)c(=O)c12` [Compound 24, 2-(6-(4-(3-chlorophenyl)piperazine-1-carbonyl)-5-methyl-4-oxothieno[2,3-d]pyrimidin-3(4H)-yl)-N-cyclohexylacetamide], the values for the dissociation constant Kd in test [1], in test [2] and in test [3] were 300 nM, 1520 nM and 90 nM, respectively.

Consider `Cc1c(C(=O)N2CCN(c3ccc(Cl)cc3)CC2)sc2ncn(CC(=O)NC3CCCC3)c(=O)c12` [Compound 42, 2-(6-(4-(4-chlorophenyl)piperazine-1-carbonyl)-5-methyl-4-oxothieno[2,3-d]pyrimidin-3(4H)-yl)-N-cyclopentylacetamide], for which the equilibrium dissociation constant (Kd) amounted to 570 nM in test [1], 3840 nM in test [2] and 280 nM in test [3].

As for `Cc1c(C(=O)N2CCN(c3ccc(Cl)cc3)CC2)sc2ncn(CC(=O)NC(C)(C)C)c(=O)c12` [Compound 15, N-tert-butyl-2-(6-(4-(4-chlorophenyl)piperazine-1-carbonyl)-5-methyl-4-oxothieno[2,3-d]pyrimidin-3(4H)-yl)acetamide], the Kd in test [1] was 2370 nM; in test [3] it was 870 nM.

With `CCN(CC(F)(F)F)C(=O)Cn1cnc2sc(C(=O)N3CCN(c4cccc(Cl)c4)CC3)c(C)c2c1=O` [Compound 127, 2-(6-(4-(3-chlorophenyl)piperazine-1-carbonyl)-5-methyl-4-oxothieno[2,3-d]pyrimidin-3(4H)-yl)-N-ethyl-N-(2,2,2-trifluoroethyl)acetamide], the dissociation constant (Kd) in test [1] came to 1150 nM; in test [3], 630 nM.

As to `Cc1c(C(=O)N2CCN(c3ccccc3F)CC2)sc2ncn(CC(=O)Nc3ccc(C(F)(F)F)cc3)c(=O)c12` [Compound 142, 2-(6-(4-(2-fluorophenyl)piperazine-1-carbonyl)-5-methyl-4-oxothieno[2,3-d]pyrimidin-3(4H)-yl)-N-(4-(trifluoromethyl)phenyl)acetamide], the Kd came to 1160 nM in test [1] and 700 nM in test [3].

As for `Cc1c(C(=O)N2CCN(c3ccccc3F)CC2)sc2ncn(CC(=O)NC3CCCC3)c(=O)c12` [Compound 36, N-cyclopentyl-2-(6-(4-(2-fluorophenyl)piperazine-1-carbonyl)-5-methyl-4-oxothieno[2,3-d]pyrimidin-3(4H)-yl)acetamide], the results for the Kd in test [1] and in test [3] were 1720 nM and 750 nM, respectively.

On to `Cc1c(C(=O)N2CCN(c3ccc(F)c(Cl)c3)CC2)sc2ncn(CC(=O)N3CCCC3)c(=O)c12` [Compound 134, 6-(4-(3-chloro-4-fluoro-phenyl)piperazine-1-carbonyl)-5-methyl-3-(2-oxo-2-(pyrrolidin-1-yl)ethyl)thieno[2,3-d]pyri-midin-4(3H)-one], for which the dissociation constant (Kd) worked out at 510 nM in test [1] and 18200 nM in test [3].

Turning to `CCN(CC(F)(F)F)C(=O)Cn1cnc2sc(C(=O)N3CCN(c4ccc(C(F)(F)F)cc4)CC3)c(C)c2c1=O` [Compound 130, N-ethyl-2-(5-methyl-4-oxo-6-(4-(4-(trifluromethyl)phenyl)piperazine-1-carbonyl)thieno[2,3-d]pyrimidin-3(4H)-yl)-N-(2,2,2-trifluoroethyl)acetamide], the equilibrium dissociation constant (Kd) is 3470 nM in test [1] and 390 nM in test [3].

On to `CCN(CC)C(=O)Cn1cnc2sc(C(=O)N3CCN(c4cccc(Cl)c4)CC3)c(C)c2c1=O` [Compound 1, 2-(6-(4-(3-chlorophenyl)piperazine-1-carbonyl)-5-methyl-4-oxothieno[2,3-d]pyrimidin-3(4H)-yl)-N,N-diethylacetamide], for which the Kd in test [1] turned out to be 2440 nM; in test [3], 890 nM.

Take `Cc1c(C(=O)N2CCN(c3ccc(F)cc3)CC2)sc2ncn(CC(=O)NC3CCCCC3)c(=O)c12` [Compound 22, N-cyclohexyl-2-(6-(4-(4-fluorophenyl)piperazine-1-carbonyl)-5-methyl-4-oxothieno[2,3-d]pyrimidin-3(4H)-yl)acetamide]: the Kd in test [1] worked out at 1360 nM; in test [3], 430 nM.

With `Cc1c(C(=O)N2CCN(c3cccc(C(F)(F)F)c3)CC2)sc2ncn(CC(=O)NC(C)(C)C)c(=O)c12` [Compound 12, N-tert-butyl-2-(5-methyl-4-oxo-6-(4-(3-(trifluoromethyl)phenyl)piperazine-1-carbonyl)thieno[2,3-d]pyrimidin-3(4H)-yl)acetamide], the dissociation constant (Kd) turned out to be 1960 nM in test [1] and 1060 nM in test [3].

Turning to `Cc1c(C(=O)N2CCN(c3cccc(Cl)c3)CC2)sc2ncn(CC(=O)NC(C)(C)C)c(=O)c12` [Compound 16, N-tert-butyl-2-(6-(4-(3-chlorophenyl)piperazine-1-carbonyl)-5-methyl-4-oxothieno[2,3-d]pyrimidin-3(4H)-yl)acetamide], the dissociation constant (Kd) turned out to be 1370 nM in test [1] and 630 nM in test [3].

Consider `Cc1c(C(=O)N2CCN(c3cc(C(F)(F)F)cc(C(F)(F)F)c3)CC2)sc2ncn(CC(=O)NC(C)(C)C)c(=O)c12` [Compound 17, 2-(6-(4-(3,5-bis(trifluoromethyl)phenyl)piperazine-1-carbonyl)-5-methyl-4-oxothieno[2,3-d]pyrimidin-3(4H)-yl)-N-tert-butylacetamide], for which the Kd stood at 510 nM in test [1] and 500 nM in test [3].

With `Cc1c(C(=O)N2CCN(c3ccccc3F)CC2)sc2ncn(CC(=O)N3CCC(C(F)(F)F)CC3)c(=O)c12` [Compound 89, 6-(4-(2-fluorophenyl)piperazine-1-carbonyl)-5-methyl-3-(2-oxo-2-((4-trifluoromethyl)piperidin-1-yl)ethyl) thieno[2,3-d]pyrimidin-4(3H)-one], the Kd was determined as 630 nM in test [1] and 420 nM in test [3].

For `Cc1c(C(=O)N2CCN(c3ccccc3F)CC2)sc2ncn(CC(=O)N3CCCCC3)c(=O)c12` [Compound 81, 6-(4-(2-fluorophenyl)piperazine-1-carbonyl)-5-methyl-3-(2-oxo-2-(piperidin-1-yl)ethyl)thieno[2,3-d]pyrimidin-4(3H)-one], the dissociation constant (Kd) in test [1] turned out to be 1680 nM; in test [3] it was 720 nM.
